Where a name gives a salt, the structure may show the parent alone. Active and inactive are the calls of the source. The rule behind the calls is not given here.
Experiments:
[1] = molecular target: T1, Histone-lysine N-methyltransferase EHMT2 (Homo sapiens) (UniProt Q96KQ7); assay: (§1) Inhibition of wild type recombinant human histone lysine methyltransferase G9a (913 to 1193 residues) expressed in Escherichia coli Rosetta BL21 DE3 PlysS at 100 uM using ARTKQTARKSTGGKA as substrate preincubated for 5 mins followed by substrate/SAM addition measured after 60 mins by MALDI-TOF MS analysis
T1 sequence (whole entry): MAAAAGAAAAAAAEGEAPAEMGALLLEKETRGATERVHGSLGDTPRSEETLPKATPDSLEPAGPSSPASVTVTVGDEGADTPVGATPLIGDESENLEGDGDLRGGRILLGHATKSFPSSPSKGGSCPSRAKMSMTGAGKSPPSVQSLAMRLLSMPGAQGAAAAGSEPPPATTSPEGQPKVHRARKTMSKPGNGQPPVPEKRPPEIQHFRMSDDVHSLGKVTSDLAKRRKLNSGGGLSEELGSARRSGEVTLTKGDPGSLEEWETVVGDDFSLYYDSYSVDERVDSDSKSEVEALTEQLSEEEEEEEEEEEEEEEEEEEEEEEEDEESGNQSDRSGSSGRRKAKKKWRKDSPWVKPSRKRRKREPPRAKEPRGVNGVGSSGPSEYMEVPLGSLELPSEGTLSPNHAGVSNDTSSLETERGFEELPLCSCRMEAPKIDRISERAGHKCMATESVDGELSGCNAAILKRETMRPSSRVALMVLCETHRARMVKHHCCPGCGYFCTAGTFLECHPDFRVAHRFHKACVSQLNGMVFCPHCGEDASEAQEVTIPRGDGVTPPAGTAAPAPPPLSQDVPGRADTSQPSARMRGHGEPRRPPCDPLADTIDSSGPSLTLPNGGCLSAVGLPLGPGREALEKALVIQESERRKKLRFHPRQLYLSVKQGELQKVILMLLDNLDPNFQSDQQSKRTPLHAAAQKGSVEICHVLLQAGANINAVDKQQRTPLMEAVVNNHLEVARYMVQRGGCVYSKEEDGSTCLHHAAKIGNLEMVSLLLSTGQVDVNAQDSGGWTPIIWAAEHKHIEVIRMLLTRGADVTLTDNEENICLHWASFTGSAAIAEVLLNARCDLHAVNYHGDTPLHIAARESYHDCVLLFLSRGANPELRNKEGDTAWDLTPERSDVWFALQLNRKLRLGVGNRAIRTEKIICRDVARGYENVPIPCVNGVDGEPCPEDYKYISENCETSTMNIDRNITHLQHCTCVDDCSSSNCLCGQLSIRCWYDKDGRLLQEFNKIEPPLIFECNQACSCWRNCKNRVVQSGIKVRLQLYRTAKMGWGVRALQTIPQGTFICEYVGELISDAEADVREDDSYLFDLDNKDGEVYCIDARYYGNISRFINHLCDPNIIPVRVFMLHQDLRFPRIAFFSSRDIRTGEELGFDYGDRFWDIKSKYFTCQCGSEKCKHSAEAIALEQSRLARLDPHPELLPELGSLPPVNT

[2] = molecular target: T1, Histone-lysine N-methyltransferase EHMT2 (Homo sapiens); assay: as §1, with “10” for “100”
[3] = molecular target: T2, Histone-lysine N-methyltransferase EHMT1 (Homo sapiens) (UniProt Q9H9B1); assay: as §1, with “GLP (951” for “G9a (913”, “1235” for “1193”, “10” for “100”
T2 sequence (whole entry): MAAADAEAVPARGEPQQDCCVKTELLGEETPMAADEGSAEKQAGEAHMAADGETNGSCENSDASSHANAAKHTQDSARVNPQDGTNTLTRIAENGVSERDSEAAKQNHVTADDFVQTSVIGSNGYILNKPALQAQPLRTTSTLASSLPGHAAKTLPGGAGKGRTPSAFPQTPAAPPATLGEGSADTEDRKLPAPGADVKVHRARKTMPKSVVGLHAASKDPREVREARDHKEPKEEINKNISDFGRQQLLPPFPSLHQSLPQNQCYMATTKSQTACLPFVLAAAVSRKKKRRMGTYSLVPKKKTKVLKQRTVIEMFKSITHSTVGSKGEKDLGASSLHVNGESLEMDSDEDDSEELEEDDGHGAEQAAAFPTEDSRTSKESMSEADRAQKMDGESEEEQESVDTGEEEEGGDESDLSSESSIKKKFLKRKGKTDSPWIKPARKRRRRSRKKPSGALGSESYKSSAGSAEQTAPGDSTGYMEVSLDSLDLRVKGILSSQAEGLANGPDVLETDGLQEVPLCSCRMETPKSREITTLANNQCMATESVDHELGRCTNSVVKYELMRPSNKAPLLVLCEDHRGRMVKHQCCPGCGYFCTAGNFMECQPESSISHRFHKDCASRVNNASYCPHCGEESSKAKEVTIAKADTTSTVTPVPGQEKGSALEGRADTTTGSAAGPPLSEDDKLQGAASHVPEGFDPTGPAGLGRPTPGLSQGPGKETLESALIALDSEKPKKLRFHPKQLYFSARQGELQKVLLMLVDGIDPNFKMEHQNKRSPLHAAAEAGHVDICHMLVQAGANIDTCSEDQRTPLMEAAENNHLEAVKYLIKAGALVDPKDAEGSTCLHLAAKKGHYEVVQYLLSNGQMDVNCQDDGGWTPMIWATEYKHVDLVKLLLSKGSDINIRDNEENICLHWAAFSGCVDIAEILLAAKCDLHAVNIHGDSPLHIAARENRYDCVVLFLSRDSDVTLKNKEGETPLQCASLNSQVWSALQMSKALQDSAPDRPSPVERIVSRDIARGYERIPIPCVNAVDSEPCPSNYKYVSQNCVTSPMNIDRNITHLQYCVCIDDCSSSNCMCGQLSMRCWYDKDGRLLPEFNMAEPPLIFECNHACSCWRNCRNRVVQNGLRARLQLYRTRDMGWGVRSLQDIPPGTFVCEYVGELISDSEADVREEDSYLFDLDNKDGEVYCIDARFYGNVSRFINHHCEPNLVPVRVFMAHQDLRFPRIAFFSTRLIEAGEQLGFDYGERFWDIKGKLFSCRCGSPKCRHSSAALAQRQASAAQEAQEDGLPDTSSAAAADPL

[4] = molecular target: T1, Histone-lysine N-methyltransferase EHMT2 (Homo sapiens); assay: Inhibition of wild type recombinant human histone lysine methyltransferase G9a (913 to 1193 residues) expressed in Escherichia coli Rosetta BL21 DE3 PlysS assessed as zinc ions ejection from Cys4-Zn finger at 100 uM by FluoZin-3 based fluorescence assay
[5] = molecular target: T3, Histone-lysine N-methyltransferase EHMT2 (Homo sapiens, UniProt Q96KQ7); assay: Inhibition of wild type recombinant human histone lysine methyltransferase G9a (913 to 1193 residues) expressed in Escherichia coli Rosetta BL21 DE3 PlysS using ARTKQTARKSTGGKA as substrate preincubated for 5 mins followed by substrate/SAM addition measured after 60 mins by MALDI-TOF MS analysis
T3 sequence (Q96KQ7 whole entry): T1 sequence (whole entry)

[6] = molecular target: T2, Histone-lysine N-methyltransferase EHMT1 (Homo sapiens); assay: Inhibition of wild type recombinant human histone lysine methyltransferase GLP (951 to 1235 residues) expressed in Escherichia coli Rosetta BL21 DE3 PlysS assessed as zinc ions ejection from Cys4-Zn finger at 100 uM by FluoZin-3 based fluorescence assay
[7] = molecular target: T4, Histone-lysine N-methyltransferase EHMT1 (Homo sapiens, UniProt Q9H9B1); assay: (§2) Inhibition of wild type recombinant human histone lysine methyltransferase GLP (951 to 1235 residues) expressed in Escherichia coli Rosetta BL21 DE3 PlysS using ARTKQTARKSTGGKA as substrate preincubated for 5 mins followed by substrate/SAM addition measured after 60 mins by MALDI-TOF MS analysis
T4 sequence (Q9H9B1 whole entry): T2 sequence (whole entry)

[8] = molecular target: T2, Histone-lysine N-methyltransferase EHMT1 (Homo sapiens); assay: as §2, with “PlysS at 100 uM” for “PlysS”

In the case of `O=C1C=CC(=O)c2ccccc21` [NAPHTHOQUINONE], the inhibition [1] is reported as over 50%, the inhibition [2] is reported as “inactive” and the inhibition [3] is reported as “inactive”. The inhibition [4] was “Active”, the IC50 [5] was 2000 nM and the inhibition [6] was “Active”. For the same compound, the IC50 [7] was 14000 nM and the inhibition [8] was over 50%.
`Br[Se]c1ccccc1` was tested, and the inhibition [1] was over 50%, the inhibition [2] was “inactive” and the inhibition [3] was “inactive”. The inhibition [4] was “Active”, the IC50 [5] was 790 nM and the inhibition [6] was “Active”. For the same compound, the IC50 [7] was 1500 nM and the inhibition [8] was over 50%.
With `O=[Se](O)c1ccccc1` [BENZENE SELENOIC ACID] the inhibition [1] was over 50%, the inhibition [2] was “inactive” and the inhibition [3] was “inactive”. For the same compound, the inhibition [4] was “Active”, the IC50 [5] was 4400 nM and the inhibition [6] was “Active”. It also gave an IC50 [7] of 4900 nM and an inhibition [8] of over 50%.
In the case of `Cl[Se]c1ccccc1`, the inhibition [1] is reported as over 50%, the inhibition [2] is reported as “inactive” and the inhibition [3] is reported as “inactive”. For the same compound, the inhibition [4] was “Active”, the IC50 [5] was 1200 nM and the inhibition [6] was “Active”. The IC50 [7] was 1100 nM and the inhibition [8] was over 50%.
With `COc1cc2c(NC3CCN(C(C)C)CC3)nc(C3CCCCC3)nc2cc1OCCCN1CCCC1` the inhibition [4] was “Active” and the inhibition [6] was “Active”.
`c1ccc(SSc2ccccn2)nc1` was tested, and the inhibition [1] was over 50%, the inhibition [2] was “inactive” and the inhibition [3] was “inactive”. For the same compound, the inhibition [4] was “Active”, the IC50 [5] was 650 nM and the inhibition [6] was “Active”. The IC50 [7] was 2700 nM and the inhibition [8] was over 50%.
For `NC(=O)/N=N/C(N)=O` [E927A], the inhibition [1] was over 50%, the inhibition [2] was “inactive” and the inhibition [3] was “inactive”. For the same compound, the inhibition [4] was “Active”, the IC50 [5] was 500 nM and the inhibition [6] was “Active”. For the same compound, the IC50 [7] was 1700 nM and the inhibition [8] was over 50%.
With `NCCSSCCN` [CYSTAMINE DIHYDROCHLORIDE] the inhibition [2] was “inactive”, the inhibition [3] was “inactive” and the inhibition [4] was “Active”. The IC50 [5] was 15000 nM, the inhibition [6] was “Active” and the IC50 [7] was over 100000 nM.
With `c1ccc([Se][Se]c2ccccc2)cc1` the inhibition [1] was over 50%, the inhibition [2] was “inactive” and the inhibition [3] was “inactive”. The inhibition [4] was “Active”, the IC50 [5] was 550 nM and the inhibition [6] was “Active”. It also gave an IC50 [7] of 860 nM and an inhibition [8] of over 50%.
For `N[C@@H](CCC(=O)N[C@@H](CS)C(=O)NCC(=O)O)C(=O)O` [GLUTATHIONE], the inhibition [2] was “inactive”, the inhibition [3] was “inactive” and the inhibition [4] was “Active”. The IC50 [5] was over 100000 nM, the inhibition [6] was “Active” and the IC50 [7] was over 100000 nM.
`NCCS` [CYSTEAMINE] was tested, and the inhibition [2] was “inactive”, the inhibition [3] was “inactive” and the inhibition [4] was “Active”. The IC50 [5] was over 100000 nM, the inhibition [6] was “Active” and the IC50 [7] was over 100000 nM.
`CCN(CC)C(=S)S` [DITIOCARB SODIUM] was tested, and the inhibition [1] was over 50%, the inhibition [2] was “inactive” and the inhibition [3] was “inactive”. The inhibition [4] was “Active”, the IC50 [5] was 9200 nM and the inhibition [6] was “Active”. For the same compound, the IC50 [7] was 81000 nM and the inhibition [8] was over 50%.
`O=C1c2ccccc2C(=O)C1(O)O` was tested, and the inhibition [2] was “inactive”, the inhibition [3] was “inactive” and the inhibition [4] was “Active”. For the same compound, the IC50 [5] was 54000 nM, the inhibition [6] was “Active” and the IC50 [7] was over 100000 nM. The inhibition [8] was 40%.
For `CN(C)C(=S)SSC(=S)N(C)C` [THIRAM], the inhibition [1] was over 50%, the inhibition [2] was “inactive” and the inhibition [3] was “inactive”. The inhibition [4] was “Active”, the IC50 [5] was 550 nM and the inhibition [6] was “Active”. It also gave an IC50 [7] of 1100 nM and an inhibition [8] of over 50%.
In the case of `O=C1c2ccccc2C(=O)c2ccccc21` [ANTHRAQUINONE], the inhibition [1] is reported as 20%, the inhibition [2] is reported as “inactive” and the inhibition [3] is reported as “inactive”. For the same compound, the inhibition [4] was “Active”, the IC50 [5] was over 100000 nM and the inhibition [6] was “Active”. It also gave an IC50 [7] of over 100000 nM and an inhibition [8] of 20%.
`O=C1c2ccccc2C(=O)N1[Se]c1ccccc1` was tested, and the inhibition [1] was over 50%, the inhibition [2] was “inactive” and the inhibition [3] was “inactive”. For the same compound, the inhibition [4] was “Active”, the IC50 [5] was 450 nM and the inhibition [6] was “Active”. The IC50 [7] was 1000 nM and the inhibition [8] was over 50%.
In the case of `O=[Se](=O)(O)O` [SODIUM SELENATE], the inhibition [1] is reported as 10%, the inhibition [2] is reported as “inactive” and the inhibition [3] is reported as “inactive”. For the same compound, the inhibition [4] was “Active”, the IC50 [5] was over 100000 nM and the inhibition [6] was “Active”. It also gave an IC50 [7] of over 100000 nM and an inhibition [8] of 10%.
For `C[S+](C)[O-]`, the inhibition [4] was “Active” and the inhibition [6] was “Active”.

From ChEMBL document CHEMBL4184305, “Inhibition of histone lysine methyltransferases G9a and GLP by ejection of structural Zn(II)” (Bioorg Med Chem Lett, 2018)
